These are literature values, as cited in patent US8410113B2, “(2R)-1-(3-chloro-2-pyrazinyl)-2-methylpiperazine and salts thereof” (Biovitrum AB (publ), priority 2002, dated 2013).

The conditions of data set [1]: obese subjects, after 2 weeks of treatment; cited from earlier work.
Data set [2] has as its system 5-HT2c receptor. The conditions noted are these: mice expressing the mutated inactive form of the 5-HT2c receptor; cited from earlier work.
For data set [3], the target named is T1, 5-HT2c receptor (Mus musculus, UniProt P34968).
T1 construct: mice that express the normal 5-HT2c receptor; host or cells: mice (whole animal)
T1 sequence (P34968 33-459): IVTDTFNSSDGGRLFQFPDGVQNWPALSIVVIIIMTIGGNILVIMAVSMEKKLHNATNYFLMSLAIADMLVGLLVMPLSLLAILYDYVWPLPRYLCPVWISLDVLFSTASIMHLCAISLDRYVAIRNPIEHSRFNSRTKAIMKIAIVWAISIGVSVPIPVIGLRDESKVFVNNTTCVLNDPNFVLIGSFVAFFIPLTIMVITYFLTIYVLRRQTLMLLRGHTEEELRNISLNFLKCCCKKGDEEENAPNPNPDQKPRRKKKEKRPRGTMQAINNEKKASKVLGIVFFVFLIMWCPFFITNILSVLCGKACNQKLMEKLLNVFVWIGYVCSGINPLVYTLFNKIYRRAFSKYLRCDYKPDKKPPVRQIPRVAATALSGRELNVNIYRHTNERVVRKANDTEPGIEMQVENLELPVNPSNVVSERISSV
The conditions noted are these: mice that express the normal 5-HT2c receptor; cited from earlier work.

As for `Clc1cccc(N2CCNCC2)c1` [mCPP, m-chlorophenylpiperazine], the body weight result in data set [1] is listed as “slight but sustained reduction in body weight”. The weight loss entry in the data set with 5-HT2c receptor [2] is “lacks activity”; at 5-HT2c receptor [3] it was “causes weight loss”.
